Data published in ChEMBL document CHEMBL5543109, “Novel β-Hairpin Antimicrobial Peptide Containing the β-Turn Sequence of -NG- and the Tryptophan Zippers Facilitate Self-Assembly into Nanofibers, Exhibiting Excellent Antimicrobial Performance” (J Med Chem, 2024).
Values after ≈ are worked out from the molar mass of the structure shown. Active and inactive are the calls of the source. The rule behind the calls is not given here.

How the values were obtained:
[1] = test system: Staphylococcus aureus; test: Antibacterial activity against Staphylococcus aureus 794 infected in BALB/c mouse skin wound infection model assessed as wound healing at 1 mg/ml, ip pre-infected with bacteria for 24 hrs followed by compound addition and measured after 13 days post infection; type: functional, organism-based; settings: time 12.0 day
[2] = Toxicity in BALB/c mouse infected with Staphylococcus aureus 794 assessed as cell necrosis at 1 mg/ml, ip pre-infected with bacteria for 24 hrs followed by compound addition and measured after 13 days by H and E staining based histopathological analysis; type: organism-based; settings: in vivo, 312 h, time 13 day
[3] = test system: Staphylococcus aureus; test: Antibacterial activity against Staphylococcus aureus 794 infected in BALB/c mouse skin wound infection model assessed as wound healing at 1 mg/ml, ip pre-infected with bacteria for 24 hrs followed by compound addition and measured on day 11; type: functional; settings: time 11.0 day
[4] = test system: Escherichia coli; test: Antibacterial activity against Escherichia coli incubated for 18 hrs by broth microdilution method; type: functional
[5] = test system: Staphylococcus aureus; test: Antibacterial activity against kanamycin resistant Staphylococcus aureus incubated for 18 hrs by broth microdilution method; type: functional
[6] = test system: Staphylococcus aureus; test: Antibacterial activity against Staphylococcus aureus 794 infected in BALB/c mouse skin wound infection model assessed as wound healing by measuring thickened scab at 1 mg/ml, ip pre-infected with bacteria for 24 hrs followed by compound addition and measured on day 9; type: functional, organism-based; settings: time 9.0 day
[7] = test system: Staphylococcus aureus; test: Antibacterial activity against Staphylococcus aureus incubated for 18 hrs by broth microdilution method; type: functional
[8] = test system: Staphylococcus aureus; test: Antibacterial activity against methicillin resistant Staphylococcus aureus 75 incubated for 18 hrs by broth microdilution method; type: functional
[9] = Toxicity in BALB/c mouse infected with Staphylococcus aureus 794 assessed as hyperkeratosis at 1 mg/ml, ip pre-infected with bacteria for 24 hrs followed by compound addition and measured after 13 days by H and E staining based histopathological analysis; type: organism-based; settings: in vivo, 312 h, time 13 day
[10] = Toxicity in BALB/c mouse infected with Staphylococcus aureus 794 assessed as inflammatory cell infiltration at 1 mg/ml, ip pre-infected with bacteria for 24 hrs followed by compound addition and measured after 13 days by H and E staining based histopathological analysis; type: organism-based; settings: in vivo, 312 h, time 13 day
[11] = test system: Staphylococcus aureus; test: Antibacterial activity against methicillin resistant Staphylococcus aureus incubated for 18 hrs by broth microdilution method; type: functional
[12] = test system: Staphylococcus aureus; test: Antibacterial activity against Staphylococcus aureus 794 infected in BALB/c mouse skin wound infection model assessed as reduction in TNFalpha level at 1 mg/ml, ip pre-infected with bacteria for 24 hrs followed by compound addition and measured after 13 days post infection; type: functional, organism-based; settings: time 12.0 day
[13] = test system: Staphylococcus aureus; test: Antibacterial activity against methicillin resistant Staphylococcus aureus 113 incubated for 18 hrs by broth microdilution method; type: functional
[14] = test system: Escherichia coli; test: Antibacterial activity against rifampicin resistant Escherichia coli incubated for 18 hrs by broth microdilution method; type: functional
[15] = test system: Escherichia coli; test: Antibacterial activity against kanamycin resistant Escherichia coli incubated for 18 hrs by broth microdilution method; type: functional
[16] = test system: Staphylococcus aureus; test: Antibacterial activity against Staphylococcus aureus S794 incubated for 18 hrs by broth microdilution method; type: functional
[17] = test system: Staphylococcus aureus; test: Antibacterial activity against Staphylococcus aureus S125 incubated for 18 hrs by broth microdilution method; type: functional
[18] = test system: Staphylococcus aureus; test: Antibacterial activity against rifampicin resistant Staphylococcus aureus incubated for 18 hrs by broth microdilution method; type: functional
[19] = test system: Staphylococcus aureus; test: Antibacterial activity against Staphylococcus aureus ATCC 25923 infected in BALB/c mouse skin wound infection model assessed as reduction in wound bacterial load at 1 mg/ml, ip administered at 1 hr interval for total 6 treatment and measured after 1 hr post last dose; type: functional, organism-based; settings: time 7.0 hrs

In the case of `CN[C@H](CC(C)C)C(=O)N[C@H]1C(=O)N[C@@H](CC(N)=O)C(=O)N[C@H]2C(=O)N[C@H]3C(=O)N[C@H](C(=O)N[C@H](C(=O)O)c4cc(O)cc(O)c4-c4cc3ccc4O)[C@H](O)c3ccc(c(Cl)c3)Oc3cc2cc(c3O[C@@H]2O[C@H](CO)[C@@H](O)[C@H](O)[C@H]2O[C@H]2C[C@](C)(N)[C@H](O)[C@H](C)O2)Oc2ccc(cc2Cl)[C@H]1O` [VANCOMYCIN], the Activity [1] is reported as “Active”, the Activity [2] is reported as “Toxic” and the Activity [3] is reported as “inactive”. The MIC [4] was 64 µM (≈ 92.8 µg/mL), the MIC [5] was 0.5 µM (≈ 0.725 µg/mL) and the Activity [6] was “Active”. The MIC [7] was 0.5 µM (≈ 0.725 µg/mL), the MIC [8] was 0.5 µM (≈ 0.725 µg/mL) and the Activity [9] was “Toxic”. For the same compound, the Activity [10] was “Toxic”, the MIC [11] was 0.5 µM (≈ 0.725 µg/mL) and the Activity [12] was “Active”. The MIC [13] was 0.5 µM (≈ 0.725 µg/mL), the MIC [14] was 128 µM (≈ 186 µg/mL) and the MIC [15] was 64 µM (≈ 92.8 µg/mL). The MIC [16] was 64 µM (≈ 92.8 µg/mL), the MIC [17] was 0.5 µM (≈ 0.725 µg/mL) and the MIC [18] was 128 µM (≈ 186 µg/mL). The Activity [19] was “Active”.
